Reference: US9452122B2, “Composition for improving skin conditions, containing extracellular domain of human bone morphogenetic protein receptor 1a as active ingredient” (JOINT CENTER FOR BIOSCIENCES, priority 2011, dated 2016)

Tested on: wrinkles induced by UV radiation in SKH-1 nude mice
Experiment: Wrinkle improvement effect of thioredoxin-human BMPR1a ECD in UV-irradiated nude mice (Example 5)
Assay type: in vivo
Conditions: UV 3 times/week for 11 weeks, 300 μl sample 5 times/week (proteins 1 μM, retinoic acid 0.01%)
Procedure: SKH-1 nude mice (female, 4 weeks old, DooYeol Biotech, Korea) were acclimated for about 2 weeks under conditions of a temperature of 24±2° C. and a humidity of 50±10% in a 12-hr light/12-hr dark cycle, and then divided into six groups for the experiment.
The protein group and control group were respectively treated with […] corresponding samples every week five times. For UV treatment, the back of each mouse was uniformly coated with the previously prepared sample one hour before UV radiation by using Art brush No. 3 (Hwahong, Incheon Korea).
VLX-3W stimulator(Vilber Lourmat, Marne la Vallee, France) was used for a UV radiation equipment. UV radiation was conducted three times every week for a total of 11 weeks: 40 mJ/cm^2 for 1st to 2nd weeks; 50 mJ/cm^2 for 3rd to 4th weeks; 60 mJ/cm^2 for 5th to 9th weeks; and 70 mJ/cm^2 for 10th to 11th weeks.
As the result of integration of the evaluations on respective items through observation by the naked eye, it was verified that skin wrinkles were improved by about 38% in the group coated with retinoic acid, about 42% in the group treated with Lipo-BMPR1a ECD, and about 59% in the group treated with Lipo-thioredoxin-BMPR1a ECD.

CC1=C(/C=C/C(C)=C/C=C/C(C)=C/C(=O)O)C(C)(C)CCC1 [retinoic acid]
skin wrinkles improved (wrinkle scores of 10 grades from photographs): about 38%
